This is an account of results in patent US5126347A, “Isomeric dideoxynuclesides” (Hoffmann-La Roche Inc., priority 1989, dated 1992).

SMILES strings stand for the structures.

For one assay, the system named is HIV (HTLV-III). Briefly: HIV-cytopathic Effect Inhibition Assay. Particulars: survival of drug treated target cells with HIV (HTLV-III), seven days; FIGS. 1 to 3. The format is cell-based. As for the experimental part: Compounds I and II were tested in the HIV-cytopathic Effect Inhibition Assay as described in the publication by Mitsuya, et al. Proc. Nat'l Acad. Sci., USA, 83:1911 (1986), which publication is hereby incorporated by reference.
The cells were exposed to either Compound I, Compound II, or AZT, and the survival of drug treated target cells determined seven days thereafter.
The black bars represent survival of compound treated target cells when HIV (HTLV-III) is added. The light bars represent survival of compound treated target cells in the absence of virus.
On the technique in general: Cytopathic effects are the visible damage that an infection or toxin causes in cultured cells.

For another assay, the system named is HIV, HTLV III; RF strain. Briefly: HIV antigen capture ELISA, virus growth in CD4+ T-lymphocytes. The format is cell-based. Particulars: C8166 CD4+ T-cell line; for IC50: Human immunodeficiency virus 1, T-lymphocyte, supernatant antigen at 72 hours post-infection. As to the method: The Enzyme Linked Immuno-absorbent Assay (ELISA) was used to test compounds I and II for anti-HIV activity by measuring virus growth in CD4^+ T-lymphocytes by detecting antigen released into the tissue culture supernatant of infected cells.
High titre virus stocks [HIV, HTLV III; RF strain] were grown in H9 cells in RPMI 1640 (Flow Laboratories) supplemented with 10% fetal calf serum, penicillin (100 IU/ml) and streptomycin (100 ug/ml). Cell debris was removed by low speed centrifugation and the supernatant stored at -70° C. until required. The host cell line used in the antiviral assays was the C8166 CD4^+ T-cell line which is particularly susceptible to infection with HIV. Cells were incubated with 10 TCID50, HIV/HTLV III(RF) at 37° C. for 90 minutes and then washed three times with PBSA. Cell aliquots (2×10^5) were resuspended in 1.5 ml growth medium in 6 ml tubes and incubated at 37° C. At 72 hours post-infection, the supernatants from the cell cultures were assayed immediately for HIV antigen.
The antigen capture ELISA used was purchased from Coulter (Luton, UK). The assays were carried out on supernatants taken from infected cell cultures using the steps described by the manufacturers. In each assay the corresponding positive and negative internal controls were included together with a supernatant control taken from uninfected cells. The plates were read using the appropriate spectrophotometric detection system.
For orientation: ELISA stands for enzyme-linked immunosorbent assay.

One may read the IC50 as the point on the concentration scale where inhibition reaches its midpoint. In the case of `Nc1ncnc2c1ncn2[C@H]1CO[C@@H](CO)C1` [Compound I, (2R-cis)-4-(6-Amino-9H-purin-9-yl)tetrahydro-2-furanmethanol], in the assay with HIV (HTLV-III), the “anti-HIV activity relative to known antiretroviral therapeutics (AZT)” value is “equivalent to that of antiretroviral therapeutics known to have in vivo activity against HIV, most particularly AZT”. Further, the “antiviral activity in this test system, compared to ddA” value with HIV, HTLV III; RF strain (antigen ELISA) is given as “comparable to that of a known anti-HIV agent ddA”. In addition, in the assay on HIV, HTLV III; RF strain, the half-inhibitory concentration (IC50) is 3000 to 10000 nM.
Consider `Nc1nc2c(ncn2[C@H]2CO[C@@H](CO)C2)c(=O)[nH]1` [Compound II], for which the “anti-HIV activity relative to known antiretroviral therapeutics (AZT)” value in the assay with HIV (HTLV-III) is on record as “equivalent to that of antiretroviral therapeutics known to have in vivo activity against HIV, most particularly AZT”.
With `Nc1ncnc2c1ncn2[C@H]1CC[C@@H](CO)O1` [ddA, 2',3'-dideoxyadenosine, reference compound], in the assay with HIV, HTLV III; RF strain, the half-maximal inhibitory concentration (IC50) lay within 1000 to 3000 nM.
